The source of these data is patent publication US8741932B2, “Imidazopyridine derivatives” (Piramal Enterprises Limited, priority 2009, dated 2014).

Structures are written as SMILES. Where only a bound is given, the exact number is not on record here.

Experiment [1] relates to A549. The experiment can be described thus: Cytotoxicity assay (propidium iodide), A549. It is filed as cell-based. The conditions noted are these: Homo sapiens; A549 (C1a, lung); 48 hours.
For experiment [2], the system named is H460. The experiment in a line: Cytotoxicity assay (propidium iodide), H460. It is filed as cell-based. The following applies: Homo sapiens, NCI-H460; H460 (C1b, lung); 48 hours.
Protocol: (§1) Cells from cell lines as mentioned in the table given below were seeded at a density of 3000 cells/well in a white opaque 96-well plate. Following incubation at 37° C./5% CO2 for a period of 18-24 hours, the cells were treated with various concentrations (stock solution was prepared in DMSO and subsequent dilutions were made in media as per ATCC guidelines) of the representative compounds of present invention (refer table 3) for a period of 48 hours. At the end of treatment, the spent culture medium was discarded, the cells were washed with 1×PBS and 200 μl of 7 μg/ml propidium iodide was added to each well. The plates were frozen at −70° C. for at least 24 hours. For analysis, the plates were brought to RT, allowed to thaw and were read in PolarStar fluorimeter with the fluorescence setting. The percentage of viable cells in the non treated set of wells was considered to be 100 and the percentage viability following treatment was calculated accordingly. IC50 values were calculated from graphs plotted using these percentages.
The test system of experiment [3] is A2780. The experiment can be described thus: Cytotoxicity assay (propidium iodide), A2780. Type of experiment: cell-based. The following applies: Homo sapiens; A2780 (C3a, ovarian); 48 hours.
Experiment [4] deals with OVCAR 3. The experiment in a line: Cytotoxicity assay (propidium iodide), OVCAR 3. Type of experiment: cell-based. The conditions noted are these: Homo sapiens; OVCAR 3 (C3c, ovarian); 48 hours.
Protocol: as §1
Experiment [5] has as its system HCT116. The experiment in a line: Cytotoxicity assay (propidium iodide), HCT116. It is filed as cell-based. The conditions noted are these: Homo sapiens, HCT-116; HCT116 (C4b, colon); 48 hours.
Protocol: as §1
Experiment [6] relates to IL-6. The experiment in a line: Human monocyte assay, LPS-stimulated IL-6. The conditions noted are these: Monocyte; human monocytes, 1 μg/ml LPS, 5 hours. Type of experiment: cell-based. Summed up: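 Adherent human PBMC-derived monocytes (2×10^4/well) were cultured 48 h, preincubated 30 min with compound or 0.5% DMSO, then stimulated with 1 μg/ml E. coli LPS for 5 h at 37° C. TNF-α and IL-6 in supernatants were measured by ELISA.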

Experiment [7] has as its system PC3. The experiment in a line: Cytotoxicity assay (propidium iodide), PC3. The conditions noted are these: Homo sapiens, PC-3, 48 h, read-out: IC50 cytotoxicity.
Experiment [8] deals with TNF-α. The experiment can be described thus: Human monocyte assay, LPS-stimulated TNF-α. It is filed as cell-based. The following applies: human monocytes, 1 μg/ml LPS, 5 hours. The protocol:
The assay was designed as in the reference, Physiol.
Peripheral blood mononuclear cells (hPBMC) were harvested from human blood and suspended in RPMI 1640 culture medium containing 10% FCS, 100 U/mL penicillin and […] streptomycin (assay medium). Monocytes in the hPBMCs were counted using a Coulter Counter following which the cells were resuspended at 2×10^5 monocytes/mL. A cell suspension containing 2×10^4 monocytes was aliquoted per well of a 96-well plate. Subsequently, the hPBMCs were incubated for 4-5 hours at 37° C., 5% CO2 (During the incubation, the monocytes adhered to the bottom of 96-well plastic culture plate). Following the incubation, the non-adherent lymphocytes were washed with assay medium and the adherent monocytes re-fed with assay medium. After a 48-hour incubation period (37° C., 5% CO2), monocytes were pretreated with various concentrations of representative compounds of present invention (refer to table 6 and 7) (prepared in DMSO) or vehicle (0.5% DMSO) for 30 minutes and stimulated with 1 μg/ml LPS (Escherchia coli 0111:B4, Sigma Chemical Co., St. Louis, Mo.). The incubation was continued for 5 hours at 37° C., 5% CO2. Supernatants were harvested, assayed for IL-6 and TNF-α by ELISA as described by the manufacturer (BD Biosciences, USA). Dexamethasone (10 μM) was used as standard for this assay. […] Biological results for both IL-6 and TNFα are indicated in Table 6 and Table 7 respectively.

As a reminder, the IC50 is the concentration that gives 50% inhibition. In the case of `Cc1ccc(S(=O)(=O)N(C)N=Cc2cnc3ccc(-c4cccnc4)cn23)cc1` [Example 3, N, 4-dimethyl-N′-((6-(pyridine-3-yl)imidazo[1,2-a]pyridine-3-yl)methylene) benzenesulfonohydrazide], the IC50 is 0.01 to 5 µM in experiment [1]; 0.01 to 5 µM in experiment [2]; 0.01 to 5 µM in experiment [3]; 0.01 to 5 µM in experiment [4]; 0.01 to 5 µM in experiment [5]; not below 5 µM in experiment [6]. In addition, the IC50 in experiment [7] was 0.01 to 5 µM.

As to `COc1ccc(S(=O)(=O)N(C)N=Cc2cnc3ccc(-c4cccnc4)cn23)cc1` [Example 12, 4-Methoxy-N-methyl-N′-((6-(pyridine-3-yl)imidazo[1,2-a]pyridine-3-yl)methylene)benzenesulfonohydrazide], the IC50 in experiment [1], in experiment [2], in experiment [3], in experiment [4], in experiment [5] and in experiment [7] was 0.01 to 5 µM throughout.

For `CN(N=Cc1cnc2ccc(-c3cccnc3)cn12)S(=O)(=O)c1cccs1` [Example 29, N-methyl-N′-((6-(pyridine-3-yl)imidazo[1,2-a]pyridine-3-yl)methylene) thiophene-2-sulfonohydrazide], the IC50 in experiment [1], in experiment [2], in experiment [3], in experiment [4], in experiment [5] and in experiment [7] was 0.01 to 5 µM throughout.

On to `COc1ccc(F)cc1S(=O)(=O)N(C)/N=C/c1cnc2ccc(-c3cccnc3)cn12` [Example 45, (E)-5-fluoro-2-methoxy-N-methyl-N′-((6-(pyridin-3-yl)imidazo[1,2-a]pyridin-3-yl)methylene)benzenesulfonohydrazide], for which the half-maximal inhibitory concentration (IC50) in experiment [1] fell in the range of 0.01 to 5 µM; in experiment [2], 0.01 to 5 µM; in experiment [6] it was 0.001 to 5 µM; in experiment [8] it was 0.001 to 1 µM.

Consider `Cc1ccc([N+](=O)[O-])cc1S(=O)(=O)N(C)N=Cc1cnc2ccc(-c3cnc4ccccc4c3)cn12` [Example 99, N, 2-Dimethyl-5-nitro-N′-((6-(quinolin-3-yl)imidazo[1,2-a]pyridine-3-yl)methylene)benzenesulfonohydrazide], for which the IC50 in experiment [1] was 0.01 to 5 µM; in experiment [2], 0.01 to 5 µM; in experiment [3] it was 0.01 to 5 µM; in experiment [4], 0.01 to 5 µM; in experiment [5], 0.01 to 5 µM; in experiment [6], 0.001 to 5 µM. Besides, in experiment [7], the 50% inhibitory concentration (IC50) lay in the range of 0.01 to 5 µM.

With `Cc1cc(-c2cccnc2)cn2c(/C=N/N(C)S(=O)(=O)c3ccc(F)c(C#N)c3)cnc12` [Example 105, (E)-3-cyano-4-fluoro-N-methyl-N′-((8-methyl-6-(pyridin-3-yl)imidazo[1,2-a]pyridin-3-yl)methylene)benzenesulfonohydrazide], the values for the IC50 in experiment [6] and in experiment [8] were 0.001 to 5 µM and 0.001 to 1 µM, respectively.
